From US9113629B2, “4-amino-6-(4-substituted-phenyl)-picolinates and 6-amino-2-(4-substituted-phenyl)-pyrimidine-4-carboxylates and their use as herbicides” (DOW AGROSCIENCES LLC, priority 2013, dated 2015)

Tested on: Key Broadleaf Weed and Crop Species
Experiment: Post-emergent Test II herbicidal activity (Table 5)
Type: in vivo
Settings: post-emergence, 336 h; ABUTH: velvetleaf (Abutilon theophrasti); application rate 70 g ai/ha; post-emergent; 14 days after application; read-out: Visual Growth Reduction (%) 14 Days After Application, ABUTH
In short: (§1)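 Injury was rated visually 14 d after treatment on a 0–100% scale against untreated controls. Test compounds, formulated with crop oil concentrate and surfactant and serially diluted down to 1/16× of the top rate, were applied by track sprayer at 187 L/ha onto first- to second-true-leaf seedlings.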
Work on `Nc1c(F)c(-c2cc(F)c(OC(F)F)cc2F)nc(C(=O)O)c1Cl` [Compound 195] yielded a pest or weed control at 70 g/ha of 0 to 29%.

Same assay, conditions: post-emergence, 336 h; ABUTH: velvetleaf (Abutilon theophrasti); application rate 140 g ai/ha; post-emergent; 14 days after application; read-out: Visual Growth Reduction (%) 14 Days After Application, ABUTH
`Nc1c(F)c(-c2cc(F)c(OC(F)F)cc2F)nc(C(=O)O)c1Cl` [Compound 195] gave a pest or weed control at 140 g/ha of 0 to 29%.

Same assay, conditions: post-emergence, 336 h; AMARE: redroot pigweed (Amaranthus retroflexus); application rate 70 g ai/ha; post-emergent; 14 days after application; read-out: Visual Growth Reduction (%) 14 Days After Application, AMARE
`Nc1c(F)c(-c2cc(F)c(OC(F)F)cc2F)nc(C(=O)O)c1Cl` [Compound 195] gave a pest or weed control at 70 g/ha of 0 to 29%.

Same assay, conditions: post-emergence, 336 h; AMARE: redroot pigweed (Amaranthus retroflexus); application rate 140 g ai/ha; post-emergent; 14 days after application; read-out: Visual Growth Reduction (%) 14 Days After Application, AMARE
With `Nc1c(F)c(-c2cc(F)c(OC(F)F)cc2F)nc(C(=O)O)c1Cl` [Compound 195] the pest or weed control at 140 g/ha was 45 to 59%.

Same assay, conditions: post-emergence, 336 h; BRSNN: oilseed-rape, canola (Brassica napus); application rate 70 g ai/ha; post-emergent; 14 days after application; read-out: Visual Growth Reduction (%) 14 Days After Application, BRSNN
For `Nc1c(F)c(-c2cc(F)c(OC(F)F)cc2F)nc(C(=O)O)c1Cl` [Compound 195], the pest or weed control at 70 g/ha was 45 to 59%.

Same assay, conditions: post-emergence, 336 h; BRSNN: oilseed-rape, canola (Brassica napus); application rate 140 g ai/ha; post-emergent; 14 days after application; read-out: Visual Growth Reduction (%) 14 Days After Application, BRSNN
For `Nc1c(F)c(-c2cc(F)c(OC(F)F)cc2F)nc(C(=O)O)c1Cl` [Compound 195], the pest or weed control at 140 g/ha was 60 to 74%.

Same assay, conditions: post-emergence, 336 h; CHEAL: lambsquarters (Chenopodium album); application rate 70 g ai/ha; post-emergent; 14 days after application; read-out: Visual Growth Reduction (%) 14 Days After Application, CHEAL
With `Nc1c(F)c(-c2cc(F)c(OC(F)F)cc2F)nc(C(=O)O)c1Cl` [Compound 195] the pest or weed control at 70 g/ha was 45 to 59%.

Same assay, conditions: post-emergence, 336 h; CHEAL: lambsquarters (Chenopodium album); application rate 140 g ai/ha; post-emergent; 14 days after application; read-out: Visual Growth Reduction (%) 14 Days After Application, CHEAL
Work on `Nc1c(F)c(-c2cc(F)c(OC(F)F)cc2F)nc(C(=O)O)c1Cl` [Compound 195] yielded a pest or weed control at 140 g/ha of 75 to 84%.

Same assay, conditions: post-emergence, 336 h; EPHHL: wild poinsettia (Euphorbia heterophylla); application rate 70 g ai/ha; post-emergent; 14 days after application; read-out: Visual Growth Reduction (%) 14 Days After Application, EPHHL
`Nc1c(F)c(-c2cc(F)c(OC(F)F)cc2F)nc(C(=O)O)c1Cl` [Compound 195] gave a pest or weed control at 70 g/ha of 30 to 44%.

Same assay, conditions: post-emergence, 336 h; EPHHL: wild poinsettia (Euphorbia heterophylla); application rate 140 g ai/ha; post-emergent; 14 days after application; read-out: Visual Growth Reduction (%) 14 Days After Application, EPHHL
Compound `Nc1c(F)c(-c2cc(F)c(OC(F)F)cc2F)nc(C(=O)O)c1Cl` [Compound 195] has a pest or weed control at 140 g/ha of 30 to 44%.

Same assay, conditions: post-emergence, 336 h; HELAN: sunflower (Helianthus annuus); application rate 70 g ai/ha; post-emergent; 14 days after application; read-out: Visual Growth Reduction (%) 14 Days After Application, HELAN
`Nc1c(F)c(-c2cc(F)c(OC(F)F)cc2F)nc(C(=O)O)c1Cl` [Compound 195] gave a pest or weed control at 70 g/ha of 60 to 74%.

Same assay, conditions: post-emergence, 336 h; HELAN: sunflower (Helianthus annuus); application rate 140 g ai/ha; post-emergent; 14 days after application; read-out: Visual Growth Reduction (%) 14 Days After Application, HELAN
With `Nc1c(F)c(-c2cc(F)c(OC(F)F)cc2F)nc(C(=O)O)c1Cl` [Compound 195] the pest or weed control at 140 g/ha was 85 to 94%.

Same assay, conditions: post-emergence, 336 h; VIOTR: wild pansy (Viola tricolor); application rate 70 g ai/ha; post-emergent; 14 days after application; read-out: Visual Growth Reduction (%) 14 Days After Application, VIOTR
Work on `Nc1c(F)c(-c2cc(F)c(OC(F)F)cc2F)nc(C(=O)O)c1Cl` [Compound 195] yielded a pest or weed control at 70 g/ha of 0 to 29%.

Same assay, conditions: post-emergence, 336 h; VIOTR: wild pansy (Viola tricolor); application rate 140 g ai/ha; post-emergent; 14 days after application; read-out: Visual Growth Reduction (%) 14 Days After Application, VIOTR
Compound `Nc1c(F)c(-c2cc(F)c(OC(F)F)cc2F)nc(C(=O)O)c1Cl` [Compound 195] has a pest or weed control at 140 g/ha of 0 to 29%.

Tested on: Key Grass and Sedge Weeds as well as Grass Crops
Experiment: Post-emergent Test II herbicidal activity (Table 6)
Type: in vivo
Settings: post-emergence, 336 h, CYPES: yellow nutsedge (Cyperus esculentus), application rate 70 g ai/ha, read-out: Visual Growth Reduction (%) 14 Days After Application, CYPES
In short: as §1
Compound `Nc1c(F)c(-c2cc(F)c(OC(F)F)cc2F)nc(C(=O)O)c1Cl` [Compound 195] has a pest or weed control at 70 g/ha of 0 to 29%.

Same assay, conditions: post-emergence, 336 h, CYPES: yellow nutsedge (Cyperus esculentus), application rate 140 g ai/ha, read-out: Visual Growth Reduction (%) 14 Days After Application, CYPES
Compound `Nc1c(F)c(-c2cc(F)c(OC(F)F)cc2F)nc(C(=O)O)c1Cl` [Compound 195] has a pest or weed control at 140 g/ha of 0 to 29%.

Same assay, conditions: post-emergence, 336 h, DIGSA: crabgrass (Digitaria sanguinalis), application rate 70 g ai/ha, read-out: Visual Growth Reduction (%) 14 Days After Application, DIGSA
With `Nc1c(F)c(-c2cc(F)c(OC(F)F)cc2F)nc(C(=O)O)c1Cl` [Compound 195] the pest or weed control at 70 g/ha was 0 to 29%.

Same assay, conditions: post-emergence, 336 h, DIGSA: crabgrass (Digitaria sanguinalis), application rate 140 g ai/ha, read-out: Visual Growth Reduction (%) 14 Days After Application, DIGSA
For `Nc1c(F)c(-c2cc(F)c(OC(F)F)cc2F)nc(C(=O)O)c1Cl` [Compound 195], the pest or weed control at 140 g/ha was 0 to 29%.

Same assay, conditions: post-emergence, 336 h, ECHCG: barnyardgrass (Echinochloa crus-galli), application rate 70 g ai/ha, read-out: Visual Growth Reduction (%) 14 Days After Application, ECHCG
Compound `Nc1c(F)c(-c2cc(F)c(OC(F)F)cc2F)nc(C(=O)O)c1Cl` [Compound 195] has a pest or weed control at 70 g/ha of 0 to 29%.

Same assay, conditions: post-emergence, 336 h, ECHCG: barnyardgrass (Echinochloa crus-galli), application rate 140 g ai/ha, read-out: Visual Growth Reduction (%) 14 Days After Application, ECHCG
Work on `Nc1c(F)c(-c2cc(F)c(OC(F)F)cc2F)nc(C(=O)O)c1Cl` [Compound 195] yielded a pest or weed control at 140 g/ha of 0 to 29%.

Same assay, conditions: post-emergence, 336 h, ORYSA: rice (Oryza sativa), application rate 70 g ai/ha, read-out: Visual Growth Reduction (%) 14 Days After Application, ORYSA
For `Nc1c(F)c(-c2cc(F)c(OC(F)F)cc2F)nc(C(=O)O)c1Cl` [Compound 195], the pest or weed control at 70 g/ha was 0 to 29%.

Same assay, conditions: post-emergence, 336 h, ORYSA: rice (Oryza sativa), application rate 140 g ai/ha, read-out: Visual Growth Reduction (%) 14 Days After Application, ORYSA
With `Nc1c(F)c(-c2cc(F)c(OC(F)F)cc2F)nc(C(=O)O)c1Cl` [Compound 195] the pest or weed control at 140 g/ha was 0 to 29%.

Same assay, conditions: post-emergence, 336 h, SETFA: giant foxtail (Setaria faberi), application rate 70 g ai/ha, read-out: Visual Growth Reduction (%) 14 Days After Application, SETFA
Work on `Nc1c(F)c(-c2cc(F)c(OC(F)F)cc2F)nc(C(=O)O)c1Cl` [Compound 195] yielded a pest or weed control at 70 g/ha of 0 to 29%.

Same assay, conditions: post-emergence, 336 h, SETFA: giant foxtail (Setaria faberi), application rate 140 g ai/ha, read-out: Visual Growth Reduction (%) 14 Days After Application, SETFA
`Nc1c(F)c(-c2cc(F)c(OC(F)F)cc2F)nc(C(=O)O)c1Cl` [Compound 195] gave a pest or weed control at 140 g/ha of 0 to 29%.

Same assay, conditions: post-emergence, 336 h, SORVU: grain sorghum (Sorghum vulgare), application rate 70 g ai/ha, read-out: Visual Growth Reduction (%) 14 Days After Application, SORVU
With `Nc1c(F)c(-c2cc(F)c(OC(F)F)cc2F)nc(C(=O)O)c1Cl` [Compound 195] the pest or weed control at 70 g/ha was 0 to 29%.

Same assay, conditions: post-emergence, 336 h, SORVU: grain sorghum (Sorghum vulgare), application rate 140 g ai/ha, read-out: Visual Growth Reduction (%) 14 Days After Application, SORVU
`Nc1c(F)c(-c2cc(F)c(OC(F)F)cc2F)nc(C(=O)O)c1Cl` [Compound 195] gave a pest or weed control at 140 g/ha of 0 to 29%.

Same assay, conditions: post-emergence, 336 h, TRZSS (wheat, Triticum aestivum), application rate 70 g ai/ha, read-out: Visual Growth Reduction (%) 14 Days After Application, TRZSS
`Nc1c(F)c(-c2cc(F)c(OC(F)F)cc2F)nc(C(=O)O)c1Cl` [Compound 195] gave a pest or weed control at 70 g/ha of 0 to 29%.

Same assay, conditions: post-emergence, 336 h, TRZSS (wheat, Triticum aestivum), application rate 140 g ai/ha, read-out: Visual Growth Reduction (%) 14 Days After Application, TRZSS
Work on `Nc1c(F)c(-c2cc(F)c(OC(F)F)cc2F)nc(C(=O)O)c1Cl` [Compound 195] yielded a pest or weed control at 140 g/ha of 0 to 29%.

Same assay, conditions: post-emergence, 336 h, ZEAMX: maize, corn (Zea mays), application rate 70 g ai/ha, read-out: Visual Growth Reduction (%) 14 Days After Application, ZEAMX
`Nc1c(F)c(-c2cc(F)c(OC(F)F)cc2F)nc(C(=O)O)c1Cl` [Compound 195] gave a pest or weed control at 70 g/ha of 0 to 29%.

Same assay, conditions: post-emergence, 336 h, ZEAMX: maize, corn (Zea mays), application rate 140 g ai/ha, read-out: Visual Growth Reduction (%) 14 Days After Application, ZEAMX
In the case of `Nc1c(F)c(-c2cc(F)c(OC(F)F)cc2F)nc(C(=O)O)c1Cl` [Compound 195], the pest or weed control at 140 g/ha is reported as 0 to 29%.

Tested on: not given
Experiment: not given
Settings: not given
`Nc1c(F)c(-c2cc(F)c(OC(F)F)cc2F)nc(C(=O)O)c1Cl` [Compound 195] gave a melting point of 162 to 165 °C.
